This is an account of results in patent publication US11725036B2, “Modified lipidated relaxin B chain peptides and their therapeutic use” (Sanofi, priority 2018, dated 2023).

Converted amounts (≈) assume the structure as drawn. Read-outs that look alike come from different tables or passages of the source. Starred links: 1 amine or outer side, 2 acyl side, 3 side chain; linkers in the order of their positions; H or OH if unused. Non-standard residues stand in square brackets, D forms with d. Residues, ends and D or L forms follow the SMILES beside them. Groups on a side chain read outwards from the residue. *: point of attachment. X3 = CCCCCCCCCCCCCCCCCC(=O)N[C@@H](CCC(=O)N[C@@H](CCC(=O)N[C@@H](CCC(=O)NCCCOCCOCCOCCCNC(=O)CCC(=O)NCCCOCCOCCOCCCNC(=O)CCC(=O)NCCCOCCOCCOCCCN*)C(=O)O)C(=O)O)C(=O)O; X4 = CCCCCCCCCCCCCCCCCC(=O)N[C@@H](CCC(=O)N[C@@H](CCC(=O)N[C@@H](CCC(=O)NCCCOCCOCCOCCCNC(=O)CCC(=O)NCCCOCCOCCOCCCN*)C(=O)O)C(=O)O)C(=O)O; Suc = O=C(CCC(=O)[*:2])[*:1]; αMeK = C[C@](N)(CCCCN)C(=O)O; Aib = CC(C)(N)C(=O)O

The nature of series [1]: Solubility testing in buffer. The series is classed as physicochemical. Particulars: target solubility 10.0 mg/ml.
The nature of the next series: Stability in rat plasma. The class given is in vitro ADME. Particulars: for Rat plasma stability % remaining: T = 0, 37° C., 5 μM. The method, then: (§1) Prior to the testing of stability in plasma (or blood) of a peptide batch, its purity (HPLC-UV) was determined.
(§2) Rat and Human plasma: anti-coagulant sodium or lithium heparin.
(§3) 100 μM solution of study compound in 50 mM phosphate buffer pH 7.4.
(§4) 950 μL plasma (or blood) was pre-incubated for 5 min at 37° C. 50 μL of compound stock solution was added. Final compound concentration=5 μM. Vortex and transfer 150 μL plasma (or blood) into an Eppendorf for each time point. The time points […] were carried out in duplicate for each species.
(§5) After incubation, 150 μL plasma (or blood) was extracted with 600 μL Acetonitrile containing 1% TFA. Said mixture was then vortexed and centrifuged 10 min at 14600 rpm. 200 μL supernatant was dried under N2. Sample was then reconstituted in 200 μL of H2O/CH3CN 98/2+0.1% FA+50 ng/ml Labetalol and analyzed using the analytical system used in solubility and stability studies.
(§6) For determination of the amount of the remaining peptide, the peak areas of the target compound at t0 and each time point […] were compared, resulting in “% remaining peptide”, following the equation: % remaining peptide=[(peak area peptide time)×100]/peak area peptide t0. The stability was expressed as “% remaining peptide”.

A short description of series [2]: Stability in human plasma. The class given is in vitro ADME. The following applies: for Human Plasma stability % remaining: T = 0, 37° C., 5 μM; for remaining at 1 h, 5 μM / remaining at 4 h, 5 μM: human, plasma (sodium or lithium heparin), 37° C. The protocol: as §1, §2, §3, §4, §5, §6
Another series addresses T1, RXFP1 (Homo sapiens, UniProt Q9HBX9).
T1 construct: OVCAR5 cells expressing endogenous RXFP1; endogenous in cells; host or cells: OVCAR5
T1 sequence (Q9HBX9 1-757): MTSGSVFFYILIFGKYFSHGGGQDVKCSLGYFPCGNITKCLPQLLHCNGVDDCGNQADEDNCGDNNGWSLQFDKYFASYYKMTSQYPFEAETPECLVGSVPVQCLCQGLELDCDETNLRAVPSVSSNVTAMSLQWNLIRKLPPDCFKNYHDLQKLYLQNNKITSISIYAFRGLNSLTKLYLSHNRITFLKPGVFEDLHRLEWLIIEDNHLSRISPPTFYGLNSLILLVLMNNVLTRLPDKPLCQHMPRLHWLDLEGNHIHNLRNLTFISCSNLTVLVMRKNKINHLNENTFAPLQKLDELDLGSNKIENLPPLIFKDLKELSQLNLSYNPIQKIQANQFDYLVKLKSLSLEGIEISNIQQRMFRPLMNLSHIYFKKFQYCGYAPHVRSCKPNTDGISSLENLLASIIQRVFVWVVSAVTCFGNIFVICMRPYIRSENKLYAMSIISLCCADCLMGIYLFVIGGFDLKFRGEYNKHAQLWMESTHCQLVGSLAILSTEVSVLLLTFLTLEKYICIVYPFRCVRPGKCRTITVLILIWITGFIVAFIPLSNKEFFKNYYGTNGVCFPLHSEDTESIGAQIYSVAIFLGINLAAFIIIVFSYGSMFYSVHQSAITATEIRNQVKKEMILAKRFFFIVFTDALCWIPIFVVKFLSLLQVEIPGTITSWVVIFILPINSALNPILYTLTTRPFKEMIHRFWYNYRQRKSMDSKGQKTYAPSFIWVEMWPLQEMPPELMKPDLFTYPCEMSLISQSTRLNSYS
The experiment in a line: OVCAR5 cAMP assay (HTRF). The class given is cell-based. Particulars: for EC50: OVCAR 5 cells expressing endogenous RXFP1, cAMP readout; for Emax: OVCAR 5 cells, maximal cAMP relative to H2-relaxin. The procedure, abridged: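 Endogenous RXFP1 in OVCAR5 cells, pretreated 40 min at 37° C with 1 mM IBMX, then exposed to increasing peptide concentrations in serum-free medium for 30 min at 37° C. cAMP read by HTRF; EC50 by variable-slope sigmoidal fit, Emax as % of H2-relaxin maximal cAMP in same run.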
For orientation: Cyclic AMP is a second messenger, typically raised through Gs and lowered through Gi signalling.

The next series is described as follows: in vivo. Also noted: species or system Sprague Dawley rats. Particulars: Sprague Dawley, rat; for bioavailability / Cmax / Tmax: sc; for Cmax / Tmax: 3 mg/kg. The method, then: Prior to the testing of a peptide batch, its purity (HPLC-UV) was determined. Dose was corrected for presence of salts, solvent and purity. Bioanalytical screening method for quantification of peptides in rat: Sprague Dawley rats were dosed with study peptide at a dose of 1 mg/kg intravenously (i.v.) or 3 mg/kg subcutaneously (s.c.) as a solution in PBS (0.2 mg/ml and 0.6 mg/ml respectively). Blood samples were collected after: 0.083, 0.25, 0.5, 1, 2, 4, 8, 24, 48 and 72 h (i.v. route) and 0.25, 0.5, 1, 2, 4, 6, 8, 10, 24, 48 and 72 h (s.c route) post application. Plasma samples were analyzed after protein precipitation via liquid chromatography mass spectrometry (LC/MS). PK parameters and half-life were calculated using Phoenix 64 (WinNonlin 6.4)-Pharsight (Certara™) (non-compartment model). Values below the limit of quantification (BLQ) were replaced by zero for subsequent calculations and PK analysis. T½: in-vivo half-life, time required for test compound plasma concentration to be divided by two during the PK experiment. C0: Extrapolated test compound plasma concentration at t=0 time point (i.v. route). Cmax: maximal test compound plasma concentration at the indicated time point (s.c. route). Tmax: Time point where Cmax was attained. F %: s.c. vs i.v. bioavailability, dose-corrected area under curve (AUC) s.c. route divided by AUC i.v.

Where [3] appears, read: acetate buffer 50 mM pH 4.5, read-out: Solubility Acetate buffer pH 4.5.
Setting [4] is: phosphate buffer 50 mM pH 7.4, read-out: Solubility phosphate buffer pH 7.4.
Where [5] appears, read: rat, plasma (sodium or lithium heparin), 37° C.

As to `CCCCCCCCCCCCCCCCCC(=O)N[C@@H](CCC(=O)N[C@@H](CCC(=O)N[C@@H](CCC(=O)NCCCOCCOCCOCCCNC(=O)CCC(=O)NCCCOCCOCCOCCCNC(=O)CCC(=O)NCCCOCCOCCOCCCNC(=O)CCC(=O)NCCCC[C@H](NC(=O)CNC(=O)[C@H](CCC(=O)O)NC(=O)C(C)(C)NC(=O)C(C)(C)NC(=O)[C@@H](NC(=O)[C@H](CCCCNC(C)=O)NC(=O)[C@H](C)NC(=O)[C@H](CCCNC(=N)N)NC(=O)[C@@H](NC(=O)[C@H](CCCCN)NC(=O)[C@H](CCC(=O)O)NC(=O)[C@H](CCCNC(=N)N)NC(=O)CNC(=O)[C@H](CCC(=O)O)NC(=O)[C@H](CC(C)C)NC(C)=O)C(C)C)[C@@H](C)CC)C(=O)N[C@@H](CO)C(=O)N[C@H](C(=O)N[C@@H](Cc1ccccc1)C(=O)N[C@@H](CO)C(=O)N[C@@](C)(CCCCN)C(=O)N[C@@H](CCCNC(=N)N)C(=O)N[C@@H](C)C(=O)N[C@@H](CCCCNC(C)=O)C(N)=O)[C@@H](C)O)C(=O)O)C(=O)O)C(=O)O` [compound 7] (Ac-LEGREKVRAK(Ac)I[Aib][Aib]EGK([Suc-X3])STFS[αMeK]RAK(Ac)-NH2), the solubility in series [1] (setting [3]) amounted to 11.5 mg/mL (≈ 2610 µM). Besides, in series [1] (setting [4]), the solubility is 11.8 mg/mL (≈ 2700 µM). Also, in “Stability in rat plasma”, the “Rat plasma stability % remaining” value stood at 77%. This molecule yielded a fraction remaining at 1 h, 5 μM in “Stability in rat plasma” (setting [5]) of 100%. Besides, the fraction remaining at 4 h, 5 μM in the series “Stability in rat plasma” (rat, plasma (sodium or lithium heparin), 4 h, 37° C.) came out at 66%. In series [2], the “Human Plasma stability % remaining” value is 92%; the amount remaining at 1 h, 5 μM came out at 94%; the amount remaining at 4 h, 5 μM came to 87%. On RXFP1, this molecule showed a concentration giving a half-maximal response (EC50) of 0.07 nM and an Emax of 95%. In “in vivo” (iv, 1 mg/kg), this molecule showed a C0 of 4160 nM and a half-life of 6.34 h. Moreover, in “in vivo”, the bioavailability worked out at 61%, the highest level (Cmax) was 1530 nM and the time to peak (Tmax) came out at 10 h.
Take `CCCCCCCCCCCCCCCCCC(=O)N[C@@H](CCC(=O)N[C@@H](CCC(=O)N[C@@H](CCC(=O)NCCCOCCOCCOCCCNC(=O)CCC(=O)NCCCOCCOCCOCCCNC(=O)CCC(=O)NCCCC[C@H](NC(=O)CNC(=O)[C@H](CCC(=O)O)NC(=O)C(C)(C)NC(=O)C(C)(C)NC(=O)[C@@H](NC(=O)[C@H](CCCCNC(C)=O)NC(=O)[C@H](C)NC(=O)[C@H](CCCNC(=N)N)NC(=O)[C@@H](NC(=O)[C@H](CCCCN)NC(=O)[C@H](CCC(=O)O)NC(=O)[C@H](CCCNC(=N)N)NC(=O)CNC(=O)[C@H](CCC(=O)O)NC(=O)[C@H](CC(C)C)NC(C)=O)C(C)C)[C@@H](C)CC)C(=O)N[C@@H](CO)C(=O)N[C@H](C(=O)N[C@@H](Cc1c[nH]c2ccccc12)C(=O)N[C@@H](CO)C(=O)NC(C)(C)C(=O)N[C@@H](CCCNC(=N)N)C(=O)N[C@@H](CCCCN)C(=O)N[C@@H](CCCCNC(C)=O)C(N)=O)[C@@H](C)O)C(=O)O)C(=O)O)C(=O)O` [compound 6] (Ac-LEGREKVRAK(Ac)I[Aib][Aib]EGK([Suc-X4])STWS[Aib]RKK(Ac)-NH2): the “Rat plasma stability % remaining” value in “Stability in rat plasma” is 97%. Also, in the series “Stability in rat plasma” (setting [5]), the amount remaining at 1 h, 5 μM turned out to be 94%. Further, in series [2], the “Human Plasma stability % remaining” value amounted to 97%; the amount remaining at 1 h, 5 μM was 92%; the amount remaining at 4 h, 5 μM came out at 91%. On RXFP1, the concentration for a half-maximal effect (EC50) stood at 0.27 nM and the maximum response (Emax) came to 95%. In “in vivo” (iv, 1 mg/kg), the C0 is 5170 nM and the half-life is 5.59 h. In “in vivo”, the bioavailability came to 72%, the Cmax was 2710 nM and the Tmax was determined as 8 h.
On to `CCCCCCCCCCCCCCCCCC(=O)N[C@@H](CCC(=O)N[C@@H](CCC(=O)N[C@@H](CCC(=O)NCCCOCCOCCOCCCNC(=O)CCC(=O)NCCCOCCOCCOCCCNC(=O)CCC(=O)NCCCOCCOCCOCCCNC(=O)CCC(=O)NCCCC[C@H](NC(=O)CNC(=O)[C@H](CCC(=O)O)NC(=O)C(C)(C)NC(=O)C(C)(C)NC(=O)[C@@H](NC(=O)[C@H](CCCCNC(C)=O)NC(=O)[C@H](C)NC(=O)[C@H](CCCNC(=N)N)NC(=O)[C@@H](NC(=O)[C@H](CCCCN)NC(=O)[C@H](CCC(=O)O)NC(=O)[C@H](CCCNC(=N)N)NC(=O)CNC(=O)[C@H](CCC(=O)O)NC(=O)[C@H](CC(C)C)NC(C)=O)C(C)C)[C@@H](C)CC)C(=O)N[C@@H](CO)C(=O)N[C@H](C(=O)N[C@@H](Cc1c[nH]c2ccccc12)C(=O)N[C@@H](CO)C(=O)NC(C)(C)C(=O)N[C@@H](CCCNC(=N)N)C(=O)N[C@@H](CCCCN)C(=O)N[C@@H](CCCCNC(C)=O)C(N)=O)[C@@H](C)O)C(=O)O)C(=O)O)C(=O)O` [compound 20] (Ac-LEGREKVRAK(Ac)I[Aib][Aib]EGK([Suc-X3])STWS[Aib]RKK(Ac)-NH2), for which the solubility in series [1] (setting [3]) stood at 9.34 mg/mL (≈ 2110 µM). Also, in series [1] (setting [4]), the solubility was 9.95 mg/mL (≈ 2250 µM). For the same molecule, the “Rat plasma stability % remaining” value in the series “Stability in rat plasma” was found to be 100%. In the series “Stability in rat plasma” (setting [5]), this molecule showed a share remaining at 1 h, 5 μM of 100%. In series [2], the “Human Plasma stability % remaining” value is on record as 87%; the fraction remaining at 1 h, 5 μM is 100%; the amount remaining at 4 h, 5 μM turned out to be 83%. On RXFP1, this molecule gave an EC50 of 0.15 nM and a maximal response (Emax) of 96%. In addition, in “in vivo” (iv, 1 mg/kg), the C0 came out at 3090 nM and the “T½ (h), in-vivo half-life” value is reported as 5.13 h. For the same molecule, in “in vivo”, the bioavailability stood at 80%, the concentration peaked (Cmax) at 1990 nM and the Tmax amounted to 10 h.

The solubility is how much of the substance goes into solution per volume. One may read the amount remaining as the share of the starting amount still present when the sample was taken. As usually defined, the EC50 is the concentration at which the effect is half-maximal. Read a high EC50 as a less potent agent. One may read the Emax as the maximal effect, on the per cent scale that the assay sets. One may read the half-life as how long it takes for the measured level to halve. What is called bioavailability is dose-corrected exposure relative to a reference, in per cent. Broadly, the Cmax is the peak of the concentration-time curve. In general, Tmax refers to the time at which the peak concentration occurs.
